In PubChem BioAssay (NCI) one finds TGI data, which are given here for 4 molecules.

Some test systems named below: SF-539 CNS; ACHN renal; MDA-MB-435; SR leukemia; A549 NSCLC; RXF 393 renal; K-562 leukemia; SW-620 colon; MALME-3M melanoma; MDA-N; PC-3 prostate; SNB-75 CNS; HS 578T breast; T-47D breast; MDA-MB-231 breast; DMS 273 small cell lung; HOP-18 NSCLC; SNB-78 CNS; DMS 114 small cell lung; KM20L2 colon.
Common to all, as to test: DTP human tumour cell line panel, 48 h

A word on the TGI: it is the concentration giving total growth inhibition.

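Cultured in 96-well plates, cells were exposed to test compound for 48 hours across five concentrations. TGI is the concentration that stops growth completely.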 Bounds are passed on as bounds.

On to `CN1Cc2cc(O)c(O)cc2C(O)C1` (centres undefined), for which the TGI in the experiment with SF-539 CNS, in the experiment on ACHN renal, with MDA-MB-435, in the experiment with SR leukemia, in the experiment with A549 NSCLC and in the experiment with RXF 393 renal was more than 100 µM throughout. The concentration for total growth inhibition (TGI) in the experiment with K-562 leukemia, in the experiment with SW-620 colon, in the experiment with MALME-3M melanoma, with MDA-N, with PC-3 prostate and with SNB-75 CNS was more than 100 µM each time. The TGI in the experiment on HS 578T breast, with T-47D breast and in the experiment on MDA-MB-231 breast was more than 100 µM each time.
Turning to `COc1cc2c(cc1Oc1c(Oc3c(O)c(OC)cc4c3C(CC(C)C)N(C)CC4)c(OC)cc3c1C(CC(C)C)N(C)CC3)C(CC(C)C)N(C)CC2` (centres undefined), the TGI in the experiment on SF-539 CNS turned out to be 1.45 µM; with DMS 273 small cell lung, 4.21 µM; in the experiment on HOP-18 NSCLC it was 17.1 µM; in the experiment on A549 NSCLC, 6.39 µM; with SNB-78 CNS it was 4.71 µM; in the experiment on RXF 393 renal, 3.28 µM. The TGI is 6.52 µM with DMS 114 small cell lung; 5.65 µM in the experiment on K-562 leukemia; 8.28 µM in the experiment on SW-620 colon; 7.12 µM with KM20L2 colon; 7.39 µM in the experiment with MALME-3M melanoma; 3.01 µM in the experiment with SNB-75 CNS.
With `CCOc1ccc(C(C)c2cc3c(cc2OC)OCO3)cc1` (centres undefined), the TGI is 0.631 µM in the experiment on SF-539 CNS; more than 100 µM in the experiment with ACHN renal; 11.7 µM with DMS 273 small cell lung; more than 100 µM in the experiment on HOP-18 NSCLC; 0.442 µM with SR leukemia; 90.8 µM in the experiment on A549 NSCLC. Further, the TGI in the experiment on SNB-78 CNS is more than 100 µM; with RXF 393 renal, 0.539 µM; in the experiment with DMS 114 small cell lung, 0.85 µM; with SW-620 colon, more than 100 µM; with KM20L2 colon, 0.414 µM; in the experiment on MALME-3M melanoma, 89.7 µM.
Take `COc1cc2cc(C(=O)N3CC(CCl)c4ccc(N(C)C)cc43)[nH]c2c(OC)c1OC` (centres undefined): the TGI in the experiment with SF-539 CNS is 0.2 µM; in the experiment with MDA-MB-435, 0.336 µM; with RXF 393 renal, 0.0761 µM; with K-562 leukemia, more than 100 µM; in the experiment with SW-620 colon, 0.773 µM; in the experiment with MDA-N, 0.431 µM. Also, the TGI in the experiment on PC-3 prostate was 0.979 µM; in the experiment with HS 578T breast, 0.758 µM; with T-47D breast, 0.378 µM; in the experiment with MDA-MB-231 breast, 0.627 µM.
